Results from PubChem BioAssay (NCI).
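Cultured in 96-well plates, cells were exposed to test compound for 48 hours across five concentrations. TGI denotes the concentration required for complete inhibition of growth.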

Experiments:
Experiment in all cases: DTP human tumour cell line panel, 48 h
U251 CNS = test system: U251 CNS
CCRF-CEM leukemia = test system: CCRF-CEM leukemia
RXF 393 renal = test system: RXF 393 renal
MDA-MB-231 breast = test system: MDA-MB-231 breast
DU-145 prostate = test system: DU-145 prostate
HT29 colon = test system: HT29 colon
T-47D breast = test system: T-47D breast
HOP-92 NSCLC = test system: HOP-92 NSCLC
BT-549 breast = test system: BT-549 breast
PC-3 prostate = test system: PC-3 prostate
UACC-257 melanoma = test system: UACC-257 melanoma
MOLT-4 leukemia = test system: MOLT-4 leukemia
NCI-H23 lung = test system: NCI-H23 lung
HL-60(TB) leukemia = test system: HL-60(TB) leukemia
SF-295 CNS = test system: SF-295 CNS
MDA-N = test system: MDA-N
SR leukemia = test system: SR leukemia
HS 578T breast = test system: HS 578T breast
UACC-62 melanoma = test system: UACC-62 melanoma

Cc1c2ccccc2c(C2C3C(=O)N(c4cccc5ccccc45)C(=O)C3ON2Cc2ccc(CC(N)=O)cc2)c2ccccc12 (stereo not drawn)
TGI (U251 CNS): > 50 µM
TGI (CCRF-CEM leukemia): > 50 µM
TGI (RXF 393 renal): 40 µM
TGI (MDA-MB-231 breast): > 50 µM
TGI (DU-145 prostate): > 50 µM
TGI (HT29 colon): 27 µM
TGI (T-47D breast): > 50 µM
TGI (HOP-92 NSCLC): > 50 µM
TGI (BT-549 breast): > 50 µM
TGI (PC-3 prostate): > 50 µM
TGI (UACC-257 melanoma): 37 µM
TGI (MOLT-4 leukemia): 25.7 µM
TGI (NCI-H23 lung): > 50 µM
TGI (HL-60(TB) leukemia): > 50 µM
TGI (SF-295 CNS): > 50 µM
TGI (MDA-N): 35.6 µM
TGI (SR leukemia): 37.6 µM
TGI (HS 578T breast): > 50 µM
TGI (UACC-62 melanoma): 47.3 µM

O=C(O)c1cccc(OCCOc2cccc(C(=O)O)c2[N+](=O)[O-])c1[N+](=O)[O-]
TGI (U251 CNS): > 100 µM
TGI (CCRF-CEM leukemia): > 100 µM
TGI (RXF 393 renal): > 100 µM
TGI (MDA-MB-231 breast): > 100 µM
TGI (DU-145 prostate): > 100 µM
TGI (HT29 colon): > 100 µM
TGI (T-47D breast): > 100 µM
TGI (HOP-92 NSCLC): > 100 µM
TGI (BT-549 breast): > 100 µM
TGI (PC-3 prostate): > 100 µM
TGI (UACC-257 melanoma): > 100 µM
TGI (MOLT-4 leukemia): > 100 µM
TGI (NCI-H23 lung): > 100 µM
TGI (HL-60(TB) leukemia): > 100 µM
TGI (SF-295 CNS): > 100 µM
TGI (MDA-N): > 100 µM
TGI (SR leukemia): > 100 µM
TGI (HS 578T breast): > 100 µM
TGI (UACC-62 melanoma): > 100 µM

COc1cc2c(cc1O)Cc1c-2[n+](C)cc2cc(OC)c(OC)cc12
TGI (U251 CNS): 21.5 µM
TGI (CCRF-CEM leukemia): > 24.9 µM
TGI (RXF 393 renal): > 100 µM
TGI (MDA-MB-231 breast): > 100 µM
TGI (DU-145 prostate): > 100 µM
TGI (HT29 colon): > 100 µM
TGI (T-47D breast): > 100 µM
TGI (HOP-92 NSCLC): > 100 µM
TGI (BT-549 breast): > 57.9 µM
TGI (PC-3 prostate): > 100 µM
TGI (UACC-257 melanoma): > 100 µM
TGI (MOLT-4 leukemia): > 39.4 µM
TGI (NCI-H23 lung): > 100 µM
TGI (HL-60(TB) leukemia): > 100 µM
TGI (SF-295 CNS): > 100 µM
TGI (MDA-N): > 100 µM
TGI (SR leukemia): > 22.1 µM
TGI (HS 578T breast): > 100 µM
TGI (UACC-62 melanoma): > 77.9 µM

Cc1cc(C)c(S(=O)(=O)N(CCCN)OCCON(CCCN)S(=O)(=O)c2c(C)cc(C)cc2C)c(C)c1
TGI (U251 CNS): > 100 µM
TGI (CCRF-CEM leukemia): > 24.9 µM
TGI (RXF 393 renal): > 100 µM
TGI (MDA-MB-231 breast): > 23.4 µM
TGI (DU-145 prostate): > 100 µM
TGI (HT29 colon): 40.4 µM
TGI (T-47D breast): > 45.1 µM
TGI (HOP-92 NSCLC): > 21.6 µM
TGI (BT-549 breast): 66.2 µM
TGI (PC-3 prostate): 4.02 µM
TGI (UACC-257 melanoma): 36.5 µM
TGI (MOLT-4 leukemia): > 100 µM
TGI (NCI-H23 lung): 7.11 µM
TGI (HL-60(TB) leukemia): > 21.9 µM
TGI (SF-295 CNS): 67 µM
TGI (MDA-N): 8.22 µM
TGI (SR leukemia): > 100 µM
TGI (HS 578T breast): 30.3 µM
TGI (UACC-62 melanoma): 21.2 µM

Nc1nc(Br)nc2ncn(C3CC(O)C(CO)O3)c12 (stereo not drawn)
TGI (U251 CNS): > 100 µM
TGI (CCRF-CEM leukemia): > 100 µM
TGI (RXF 393 renal): > 100 µM
TGI (MDA-MB-231 breast): > 100 µM
TGI (DU-145 prostate): > 100 µM
TGI (HT29 colon): > 100 µM
TGI (T-47D breast): > 100 µM
TGI (HOP-92 NSCLC): > 100 µM
TGI (BT-549 breast): > 100 µM
TGI (PC-3 prostate): > 100 µM
TGI (UACC-257 melanoma): > 100 µM
TGI (MOLT-4 leukemia): 0.202 µM
TGI (NCI-H23 lung): > 53 µM
TGI (HL-60(TB) leukemia): 9.35 µM
TGI (SF-295 CNS): > 100 µM
TGI (MDA-N): > 100 µM
TGI (SR leukemia): > 81 µM
TGI (HS 578T breast): > 100 µM
TGI (UACC-62 melanoma): > 100 µM

S=C(Nc1ccc2c(c1)oc1ccccc12)c1cccs1
TGI (U251 CNS): > 100 µM
TGI (CCRF-CEM leukemia): > 100 µM
TGI (RXF 393 renal): > 100 µM
TGI (MDA-MB-231 breast): > 100 µM
TGI (DU-145 prostate): > 100 µM
TGI (HT29 colon): > 100 µM
TGI (T-47D breast): > 100 µM
TGI (HOP-92 NSCLC): > 100 µM
TGI (BT-549 breast): > 100 µM
TGI (PC-3 prostate): > 100 µM
TGI (UACC-257 melanoma): > 100 µM
TGI (MOLT-4 leukemia): > 100 µM
TGI (NCI-H23 lung): > 100 µM
TGI (HL-60(TB) leukemia): > 100 µM
TGI (SF-295 CNS): > 100 µM
TGI (MDA-N): > 100 µM
TGI (SR leukemia): > 100 µM
TGI (HS 578T breast): > 100 µM
TGI (UACC-62 melanoma): > 100 µM

Cn1nc(-c2ccccc2)c2c(-c3ccccc3)c3cc(Cl)ccc3nc21
TGI (U251 CNS): > 100 µM
TGI (CCRF-CEM leukemia): > 100 µM
TGI (RXF 393 renal): > 100 µM
TGI (MDA-MB-231 breast): > 100 µM
TGI (DU-145 prostate): > 100 µM
TGI (HT29 colon): > 100 µM
TGI (T-47D breast): > 100 µM
TGI (HOP-92 NSCLC): > 25 µM
TGI (BT-549 breast): > 100 µM
TGI (PC-3 prostate): > 100 µM
TGI (UACC-257 melanoma): > 100 µM
TGI (MOLT-4 leukemia): > 100 µM
TGI (NCI-H23 lung): > 100 µM
TGI (HL-60(TB) leukemia): > 100 µM
TGI (SF-295 CNS): > 100 µM
TGI (MDA-N): > 100 µM
TGI (SR leukemia): > 100 µM
TGI (HS 578T breast): > 100 µM
TGI (UACC-62 melanoma): > 100 µM
